Test results reported in article PMC7892475, “C-Terminal Amination of a Cationic Anti-Inflammatory Peptide Improves Bioavailability and Inhibitory Activity Against LPS-Induced Inflammation” (Frontiers in Immunology, 2021).

What was measured:
[1] = test system: TLR4/MD-2 complex; assay: Surface plasmon resonance binding; conditions: SPR, Biacore X100, PBS with 0.05% Tween 20, 30 μl/min, 1:1 model, 0 to 10 μM
Protocol: SPR assays were performed using a Biacore X100 instrument (GE Healthcare, Pittsburgh, PA, USA). PBS containing 0.05% Tween 20 was used as the running buffer. The running buffer was continuously passed into the reaction chamber at 30 μl/min. Immobilization of CTP-NH2 on the chip surface was performed according to an amino coupling protocol. […] Running buffer was injected into the empty channel as a reference. To regenerate the chip surface at the end of each experiment, 10 mM Gly-HCl buffer (pH 2.5) was injected. ProteOn manager software (version 2.0) was used to analyze the experimental data. The binding curves were processed for the start injection alignment and baseline. A reference-subtracted sensorgram was then fitted to the curves describing a homogeneous 1:1 model. Data from the protein surfaces were grouped together to fit the association kinetic rate constant (Ka) and the dissociation rate constant (Kd). The equilibrium dissociation constant (KD) for the peptide-TLR4/MD-2 interaction was calculated as follows: […]

[2] = Reverse-phase HPLC retention time as measure of peptide hydrophobicity; type: physicochemical; conditions: HPLC on reverse-phase matrix, aqueous solution; used by the paper as measure of hydrophobicity
Excerpt: The retention time of peptides on a reverse-phase matrix has been reported to be related to peptide hydrophobicity ([34]).

[3] = LPS neutralization, chromogenic end-point Tachypleus Amebocyte Lysate (TAL) assay; type: binding, E. coli; conditions: chromogenic TAL assay, LPS 1.0 U/ml, 0 to 64 μg/ml peptide
Protocol: The neutralization of LPS by the peptides was assessed through a quantitative Chromogenic End-point Tachypleus Amebocyte Lysate (CE TAL) assay using a QCL-1000 kit (XIAMEN BIOENDO TECHNOLOGY CO., China). LPS (E. coli, O111:B4, Sigma-Aldrich, USA) at a final concentration of 1.0 U/ml was incubated with various concentrations of the peptides (0 to 64 μg/ml final concentration) at 37°C for 15 min. Afterwards, the mixtures were incubated with TAL assay reagent at 37°C; for 6 min, and the absorbance was measured at 540 nm.

[4] = test system: RAW264.7 cells; assay: CCK-8 cell viability assay; type: cell-based, mouse; conditions: RAW264.7 macrophages, CCK-8, 0 to 80 μg/ml, 24 h or 72 h, 37°C
Protocol: The viability of peptide-treated RAW264.7 cells was determined using a Cell Counting Kit-8 (CCK-8) Assay Kit (Dojindo) ([35]). RAW264.7 cells were plated in 96-well plates at a density of 3×10^4 cells/ml in 100 μl DMEM overnight. The cell culture medium was then supplemented with fresh medium containing candidate peptides in a series of concentrations, and the plates were incubated for another 24 h or 72 h. Each well was incubated with 10 μl CCK-8 solution for 4 h in the dark. Afterwards, the absorbance at 450 nm was measured using a microplate reader. Cell viability was determined by:
Cell viability (%)=(OD450sample/OD450(control))×100%

[5] = test system: RAW264.7 cells; assay: Cellular uptake and localization of FITC-labeled peptides (confocal microscopy, flow cytometry); type: cell-based, mouse; conditions: N-terminus FITC-labeled peptide, 10 μg/ml, 24 h, 37°C, confocal microscopy and flow cytometry (average FITC intensity)
Protocol: RAW264.7 cells were treated with N-terminus FITC-labeled peptides at 10 μg/ml for 24 h at 37°C; in the dark. Then, the RAW264.7 cells were rinsed with PBS three times, fixed with paraformaldehyde and washed with PBS. The cell nuclei were stained with DAPI (diluted 1:500 in PBS) (Sigma, USA) for 5 min, and the cells were washed with PBS. The above cells were spread on a glass slide, fixed and observed with a Leica TCA sp5 confocal microscope (Germany).
RAW264.7 cells were stained with 10 μg/ml N-terminus FITC-labeled peptides at 37°C in the dark for 24 h. Afterwards, the RAW264.7 cells were harvested and rinsed with PBS five times. The average FITC intensity in the cells was measured via flow cytometry.

[6] = test system: LPS-stimulated RAW264.7 cells; assay: Time of addition experiment (peptide pretreatment, LPS neutralization, post-treatment) in RAW264.7 cells; type: cell-based, mouse; conditions: ELISA
Protocol: To identify the mechanisms underlying the anti-inflammatory effects, three different types of treatments were performed as follow.
Briefly, 10 μg/ml peptide was added to the cell culture medium and incubated with cells for 1 h at 37°C Afterwards, the RAW 264.7 cells were washed with PBS and cultured with fresh medium containing 100 ng/ml LPS for 12 h at 37°C. After treatment, TNF-α, IL-6, and IL-1β secretion in the cell supernatants was assessed.
The peptides (10 μg/ml) were incubated with 100 ng/ml LPS directly for 1 h at 37°C. RAW 264.7 cells were stimulated with these mixtures for 12 h at 37°C. Afterwards, the TNF-α, IL-6 and IL-1β levels in the cell supernatants were assessed.
Briefly, 100 ng/ml LPS was added to the cell culture medium and incubated with cells for 1 h at 37°C. Afterwards, the RAW 264.7 cells were washed with PBS and cultured with fresh medium containing 10 μg/ml peptides for 12 h at 37°C. Afterwards, the TNF-α, IL-6, and IL-1β levels in the cell supernatants were assessed.
The levels of tumor necrosis factor (TNF)-α, interleukin (IL)-6, and IL-1β in cell culture supernatants and the levels of TNF-α, IL-6, and IL-1β in the serum of mice were detected using commercial ELISA kits (eBioscience, San Diego, USA) according to the manufacturer’s instructions. The levels of serum alanine amino transferase (ALT) and aspartate amino transferase (AST) were detected using commercial reagent kits (Nanjing Jiancheng Bioengineering Institute, Nanjing, China). The activity of myeloperoxidase (MPO) in the liver of mice was detected using an ELISA kit (Boster, Wuhan, China) according to the manufacturer’s instructions.

Q: With “RWGRFLRKIRRFRRKDVT-NH2 [CTP-NH2, C-terminal amidated derivative peptide of CTP]” as the substance, how does the Ka (association kinetic rate constant) [1] read?
A: The Ka (association kinetic rate constant) was 1.65e+07 M⁻¹ s⁻¹.

Q: And the Retention time [2]?
A: Its Retention time is 11.96 min.

Q: What about the “LPS neutralization activity” value [3] of the same substance?
A: Its value is “stronger than that of CTP”.

Q: And the “cytotoxicity (comparison in words)” value [4]?
A: Its value is “less cytotoxicity than CTP”.

Q: And the “cellular uptake and localization” value [5]?
A: Its value is “significant cellular uptake and a dispersed distribution compared with CTP”.

Q: And the “TNF-α and IL-6 level, peptide used to pretreat cells or added after LPS induction” value ([6]; 10 μg/ml peptide 1 h then wash and 100 ng/ml LPS 12 h, or LPS 1 h, wash, then peptide 12 h)?
A: The value was “reduced the concentration of TNF-α”.

Q: And the “TNF-α and IL-6 release, peptide incubated with LPS” value ([6]; 10 μg/ml peptide incubated with 100 ng/ml LPS 1 h at 37°C, mixture on cells 12 h)?
A: The value was “more potency than CTP”.
